From patent publication US10294202B2, “Pyrrolidinones as herbicides” (FMC Corporation, priority 2013, dated 2019)

How the values were obtained:
corn = test: Test A pre-/postemergence herbicide test; format: in vivo, Zea mays; settings: Postemergence
In short: (§1)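 Scoring was visual, relative to untreated controls, on a 0–100 scale after about 10 greenhouse days. Preemergence treatment used a directed soil spray over seeded loam/sand; postemergence treatment targeted one- to two-leaf plants of 2–10 cm.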

blackgrass = test: Test A postemergence herbicide test; format: in vivo, Alopecurus myosuroides
In short: (§2)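 Visual injury rating, 0 (no effect) to 100 (complete control), versus untreated controls ~10 days after treatment. Postemergence spray applied at one- to two-leaf stage, plants 2–10 cm tall, potted in loam soil/sand. Greenhouse-held.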

kochia = test: Test A pre-/postemergence herbicide test; format: in vivo, Kochia scoparia
In short: as §1

sedge, umbrella = test: Test B flooded paddy test; format: in vivo, Cyperus difformis; settings: 500 g ai/ha, Flood; scale of 0 to 100 where 0 is no effect and 100 is complete control
In short: (§3)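 2-leaf plants; flood 3 cm over soil; compound into paddy water; depth held. Greenhouse 13–15 d. Visual rating vs controls, 0 (no effect) to 100 (complete control); dash = not tested.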

pigweed = test: Test A pre-/postemergence herbicide test; format: in vivo, Amaranthus retroflexus
In short: as §1

giant foxtail = test: Test A pre-/postemergence herbicide test; format: in vivo, Setaria faberii
In short: as §1

rice = test: Test B flooded paddy test; format: in vivo, Oryza sativa; settings: 500 g ai/ha, Flood; scale of 0 to 100 where 0 is no effect and 100 is complete control
In short: as §3

ryegrass, Italian = test: Test A pre-/postemergence herbicide test; format: in vivo, Lolium multiflorum
In short: as §1

wheat = test: Test A pre-/postemergence herbicide test; format: in vivo, Triticum aestivum; settings: Postemergence
In short: as §1

ducksalad = test: Test B flooded paddy test; format: in vivo, Heteranthera limosa; settings: 500 g ai/ha, Flood; scale of 0 to 100 where 0 is no effect and 100 is complete control
In short: as §3

barnyardgrass [1] = test: Test B flooded paddy test; format: in vivo, Echinochloa crus-galli; settings: 500 g ai/ha, Flood; scale of 0 to 100 where 0 is no effect and 100 is complete control
In short: as §3

ragweed = test: Test A pre-/postemergence herbicide test; format: in vivo, Ambrosia elatior
In short: as §1

galium = test: Test A postemergence herbicide test; format: in vivo, Galium aparine
In short: as §2

barnyardgrass [2] = test: Test A pre-/postemergence herbicide test; format: in vivo, Echinochloa crus-galli
In short: as §1

[3] = 125 g ai/ha, 0 to 100 scale, 0 no effect, 100 complete control
[4] = 125 g ai/ha, visual rating, 0 to 100 scale, 0 no effect, 100 complete control, approximately 10 days, preemergence
[5] = Postemergence, 125 g ai/ha, 0 to 100 scale, 0 no effect, 100 complete control
[6] = preemergence, 500 g ai/ha, 0 to 100 scale
[7] = 125 g ai/ha, visual rating on 0 to 100 scale (0 no effect, 100 complete control), approx. 10 days
[8] = 500 g ai/ha, 0 to 100 scale (0 no effect, 100 complete control)
[9] = Postemergence, 125 g ai/ha, visual rating on 0 to 100 scale (0 no effect, 100 complete control), approx. 10 days
[10] = Postemergence, 500 g ai/ha, 0 to 100 scale (0 no effect, 100 complete control)
[11] = Preemergence, 125 g ai/ha, 0 to 100 scale where 0 is no effect and 100 is complete control
[12] = preemergence, 500 g ai/ha, 0 to 100 scale, 0 is no effect and 100 is complete control
[13] = Preemergence, 500 g ai/ha, visual rating on 0 to 100 scale (0 no effect, 100 complete control)

COc1cc(C2CNC(=O)C2C(=O)Nc2ccc(F)c(F)c2F)ccc1F (racemic) [Compound 132]
Plant response rating, Corn (corn; [3]): 0 | Corn plant response rating (0 to 100 scale, 0 is no effect, 100 is complete control) (corn; 500 g ai/ha): 0 | Plant response rating, Blackgrass (blackgrass; [3]): 0 | Blackgrass plant response rating (0 to 100 scale, 0 is no effect, 100 is complete control) (blackgrass; 500 g ai/ha): 0 | Plant response rating, Kochia (kochia; [4]): 0 | Plant response rating, Kochia (kochia; [5]): 0 | Kochia plant response rating (0 to 100 scale, 0 is no effect, 100 is complete control) (kochia; Postemergence, 500 g ai/ha): 10 | Plant response rating, Kochia (kochia; [6]): 0 | Plant response rating, Sedge, Umbrella (sedge, umbrella): 0 | Plant response rating, Pigweed (pigweed; [4]): 0 | Plant response rating, Pigweed (pigweed; [5]): 0 | Pigweed plant response rating (0 to 100 scale, 0 is no effect, 100 is complete control) (pigweed; Postemergence, 500 g ai/ha): 0 | Plant response rating, Pigweed (pigweed; [6]): 0 | Plant response rating, Foxtail, Giant (giant foxtail; [4]): 70 | Plant response rating, Foxtail, Giant (giant foxtail; [5]): 50 | Foxtail, Giant plant response rating (0 to 100 scale, 0 is no effect, 100 is complete control) (giant foxtail; Postemergence, 500 g ai/ha): 70 | Plant response rating, Foxtail, Giant (giant foxtail; [6]): 80 | Plant response rating, Rice (rice): 0 | Plant response rating, Ryegrass, Italian (ryegrass, Italian; [4]): 0 | Plant response rating, Ryegrass, Italian (ryegrass, Italian; [5]): 0 | Ryegrass, Italian plant response rating (0 to 100 scale, 0 is no effect, 100 is complete control) (ryegrass, Italian; Postemergence, 500 g ai/ha): 0 | Plant response rating, Ryegrass, Italian (ryegrass, Italian; [6]): 0 | Plant response rating, Wheat (wheat; [3]): 0 | Wheat plant response rating (0 to 100 scale, 0 is no effect, 100 is complete control) (wheat; 500 g ai/ha): 0 | Plant response rating, Ducksalad (ducksalad): 85 | Plant response rating, Barnyardgrass (barnyardgrass [1]): 40 | Plant response rating, Ragweed (ragweed; [4]): 0 | Plant response rating, Ragweed (ragweed; [5]): 0 | Ragweed plant response rating (0 to 100 scale, 0 is no effect, 100 is complete control) (ragweed; Postemergence, 500 g ai/ha): 0 | Plant response rating, Ragweed (ragweed; [6]): 0 | Plant response rating, Galium (galium; [3]): 0 | Galium plant response rating (0 to 100 scale, 0 is no effect, 100 is complete control) (galium; 500 g ai/ha): 0 | Plant response rating, Barnyardgrass (barnyardgrass [2]; [4]): 70 | Plant response rating, Barnyardgrass (barnyardgrass [2]; [5]): 60 | Barnyardgrass plant response rating (0 to 100 scale, 0 is no effect, 100 is complete control) (barnyardgrass [2]; Postemergence, 500 g ai/ha): 80 | Plant response rating, Barnyardgrass (barnyardgrass [2]; preemergence, 500 g ai/ha, 0 to 100 scale (0 no effect, 100 complete control)): 90

CSc1cccc(C2CNC(=O)C2C(=O)Nc2ccc(F)c(F)c2F)c1 (stereo not drawn) [Compound 290]
Plant response rating, Corn (corn; [7]): 0 | Plant response rating, Corn (corn; [8]): 0 | Plant response rating, Blackgrass (blackgrass; [7]): 0 | Plant response rating, Blackgrass (blackgrass; [8]): 0 | Plant response rating, Kochia (kochia; [9]): 0 | Plant response rating, Kochia (kochia; [10]): 0 | Plant response rating, Kochia (kochia; [11]): 0 | Plant response rating, Kochia (kochia; [12]): 0 | Plant response rating, Sedge, Umbrella (sedge, umbrella): 0 | Plant response rating, Pigweed (pigweed; [9]): 0 | Plant response rating, Pigweed (pigweed; [10]): 10 | Plant response rating, Pigweed (pigweed; [11]): 0 | Plant response rating, Pigweed (pigweed; [12]): 0 | Plant response rating, Foxtail, Giant (giant foxtail; [9]): 30 | Plant response rating, Foxtail, Giant (giant foxtail; [10]): 60 | Plant response rating, Foxtail, Giant (giant foxtail; [11]): 60 | Plant response rating, Foxtail, Giant (giant foxtail; [12]): 80 | Plant response rating, Rice (rice): 0 | Plant response rating, Ryegrass, Italian (ryegrass, Italian; [9]): 0 | Plant response rating, Ryegrass, Italian (ryegrass, Italian; [10]): 0 | Plant response rating, Ryegrass, Italian (ryegrass, Italian; [11]): 0 | Ryegrass, Italian plant response rating (ryegrass, Italian; [13]): 0 | Plant response rating, Wheat (wheat; [7]): 0 | Plant response rating, Wheat (wheat; [8]): 0 | Plant response rating, Ducksalad (ducksalad): 75 | Plant response rating, Barnyardgrass (barnyardgrass [1]): 40 | Plant response rating, Ragweed (ragweed; [9]): 0 | Plant response rating, Ragweed (ragweed; [10]): 0 | Plant response rating, Ragweed (ragweed; [11]): 0 | Plant response rating, Ragweed (ragweed; [12]): 0 | Plant response rating, Galium (galium; [7]): 0 | Plant response rating, Galium (galium; [8]): 0 | Plant response rating, Barnyardgrass (barnyardgrass [2]; [9]): 50 | Plant response rating, Barnyardgrass (barnyardgrass [2]; [10]): 80 | Plant response rating, Barnyardgrass (barnyardgrass [2]; [11]): 60 | Plant response rating, Barnyardgrass (barnyardgrass [2]; [12]): 80

O=C1NCC(c2ccc(Br)c(Br)c2)C1C(=O)Nc1ccc(F)cc1F (stereo not drawn) [Compound 340]
Plant response rating, Corn (corn; [7]): 0 | Plant response rating, Corn (corn; [8]): 0 | Plant response rating, Blackgrass (blackgrass; [7]): 0 | Plant response rating, Blackgrass (blackgrass; [8]): 20 | Plant response rating, Kochia (kochia; [9]): 0 | Plant response rating, Kochia (kochia; [11]): 0 | Kochia plant response rating (kochia; [13]): 0 | Plant response rating, Sedge, Umbrella (sedge, umbrella): 0 | Plant response rating, Pigweed (pigweed; [9]): 0 | Plant response rating, Pigweed (pigweed; [11]): 0 | Pigweed plant response rating (pigweed; [13]): 0 | Plant response rating, Foxtail, Giant (giant foxtail; [9]): 30 | Plant response rating, Foxtail, Giant (giant foxtail; [10]): 90 | Plant response rating, Foxtail, Giant (giant foxtail; [11]): 80 | Foxtail, Giant plant response rating (giant foxtail; [13]): 90 | Plant response rating, Rice (rice): 0 | Plant response rating, Ryegrass, Italian (ryegrass, Italian; [9]): 0 | Plant response rating, Ryegrass, Italian (ryegrass, Italian; [11]): 0 | Ryegrass, Italian plant response rating (ryegrass, Italian; [13]): 20 | Plant response rating, Wheat (wheat; [7]): 0 | Plant response rating, Ducksalad (ducksalad): 50 | Plant response rating, Barnyardgrass (barnyardgrass [1]): 0 | Plant response rating, Ragweed (ragweed; [9]): 0 | Plant response rating, Ragweed (ragweed; [11]): 0 | Ragweed plant response rating (ragweed; [13]): 0 | Plant response rating, Galium (galium; [7]): 0 | Plant response rating, Barnyardgrass (barnyardgrass [2]; [9]): 30 | Plant response rating, Barnyardgrass (barnyardgrass [2]; [10]): 50 | Plant response rating, Barnyardgrass (barnyardgrass [2]; [11]): 60 | Barnyardgrass plant response rating (barnyardgrass [2]; [13]): 80
